Source: patent US20080311126A1, “Antisense Oligonucleotides Directed to Ribonucleotide Reducatase R2 and Uses Thereof in Combination Therapies for the Treatment of Cancer” (Genesense Technologies, Inc, priority 2004, published 2008)
Oligonucleotides are written 5' to 3', each unit as a sugar letter and its base; * is a phosphorothioate linkage, no mark a phosphodiester; rarer units and linkages stand in square brackets, end groups in braces. Plain capitals give the bases only. d = 2'-deoxy (DNA)

Columns and labels:
Test in all cases: Relative colony forming efficiency (Example 17, Table 13)
Format in all cases: cell-based, human
[1] = test system: A549 lung cell carcinoma; settings: averages of 2-8 determinations
Method: (§1) Colony forming efficiency was determined using standard protocols. […] The test oligonucleotides were added to cell cultures in the presence of 2.5 μg of DOTMA/DOPE (Lipofectin; Life Technologies, Inc.) for four hours. The oligonucleotide was tested at 0.2 μM unless otherwise indicated. Controls were the cultures treated with lipofectin but without the oligonucleotide. […] Surviving cells were visualized by methylene blue staining, and colonies were scored. In some experiments cell aliquots were removed from the culture and viability was determined using the trypan blue exclusion test. Results were analyzed as percent of surviving cells compared to control cells. To test the antisense effects of many of these sequences as phosphorthioate deoxyribonucleotides, they were examined in relative colony forming experiments conducted as described in Example 16 with a series of human tumour cell lines. The results (shown as % inhibition of colony forming ability) obtained with cancer cells derived from the bladder, breast, lung, colon, pancreas, prostate, liver and cervix, are shown in Table 13. The specific cell lines employed are as follows: […]

[2] = test system: MDA PaCa-2 pancreatic cell carcinoma; settings: MIA PaCa-2 pancreatic cell carcinoma; averages of 2-8 determinations
Method: as §1

[3] = test system: MDA-MB-231 breast cell adenocarcinoma; settings: averages of 2-8 determinations
Method: as §1

[4] = test system: PC-3 prostrate cell adenocarcinoma; settings: averages of 2-8 determinations
Method: as §1

[5] = test system: T24 bladder cell carcinoma; settings: averages of 2-8 determinations
Method: as §1

[6] = test system: HCT116 colon cell carcinoma; settings: averages of 2-8 determinations
Method: as §1

[7] = test system: HepG2 hepatocellular carcinoma; settings: averages of 2-8 determinations
Method: as §1

| Substance | Reduced relative colony forming efficiency, A549 (% inhibition of colony forming ability) [1] [%] | Reduced relative colony forming efficiency, MIA PaCa-2 (% inhibition of colony forming ability) [2] [%] | Reduced relative colony forming efficiency, MDA-MB-231 (% inhibition of colony forming ability) [3] [%] | Reduced relative colony forming efficiency, PC-3 (% inhibition of colony forming ability) [4] [%] | Reduced relative colony forming efficiency, T24 (% inhibition of colony forming ability) [5] [%] | Reduced relative colony forming efficiency, HCT116 (% inhibition of colony forming ability) [6] [%] | Reduced relative colony forming efficiency, HepG2 (% inhibition of colony forming ability) [7] [%] |
| --- | --- | --- | --- | --- | --- | --- | --- |
| GGCCCAGATCACCCCTAAAT (antisense dG*dG*dC*dC*dC*dA*dG*dA*dT*dC*dA*dC*dC*dC*dC*dT*dA*dA*dA*dT) [AS-II-2128-20] | 87.31 | 39.23 | 91.3 | 88.89 | 83.74 | – | – |
| TATCGCCGCCGTGAGTACAA (antisense dT*dA*dT*dC*dG*dC*dC*dG*dC*dC*dG*dT*dG*dA*dG*dT*dA*dC*dA*dA) [AS-II-1768-20] | 86.8 | 60.36 | 91.56 | 86.36 | 74.56 | – | – |
| TGGCACCAACTGACTAATAT (antisense dT*dG*dG*dC*dA*dC*dC*dA*dA*dC*dT*dG*dA*dC*dT*dA*dA*dT*dA*dT) [AS-II-1976-20] | – | – | 89.6 | 88.16 | – | – | – |
| AAACGGCTTCTCACACATAT (antisense dA*dA*dA*dC*dG*dG*dC*dT*dT*dC*dT*dC*dA*dC*dA*dC*dA*dT*dA*dT) [AS-II-2151-20] | 79.19 | 62.15 | 95.14 | 84.86 | 79.83 | – | – |
| TCAGCATCCAAGGTAAAAGA (antisense dT*dC*dA*dG*dC*dA*dT*dC*dC*dA*dA*dG*dG*dT*dA*dA*dA*dA*dG*dA) [AS-II-1338-20] | 63.93 | 79.17 | – | 93.75 | 63.16 | 74.73 | 80.41 |
| TTTTAACTGGCTGTGCTGGT (antisense dT*dT*dT*dT*dA*dA*dC*dT*dG*dG*dC*dT*dG*dT*dG*dC*dT*dG*dG*dT) [AS-II-1666-20] | 54.82 | 49.72 | 26.71 | 86.06 | 71.71 | – | – |
| CAGAATATCGACGCAAAAGA (dC*dA*dG*dA*dA*dT*dA*dT*dC*dG*dA*dC*dG*dC*dA*dA*dA*dA*dG*dA) [AS-II-909-20] | 78.68 | 46.13 | 45.96 | 84.86 | 78.57 | – | – |
| ATGGTACTCGATGGGGAAGA (chemistry not given here) [AS-II-439-20] | 76.46 | 92.69 | – | 77.66 | 67.84 | 64.7 | 73.04 |
| ACTGCCATTGTCACTGCTAT (antisense dA*dC*dT*dG*dC*dC*dA*dT*dT*dG*dT*dC*dA*dC*dT*dG*dC*dT*dA*dT) [AS-II-1581-20] | 90.55 | 24.07 | – | 85.83 | 68.22 | 66.85 | 93.07 |
| TGGCTGTGCTGGTTAAAGGA (antisense dT*dG*dG*dC*dT*dG*dT*dG*dC*dT*dG*dG*dT*dT*dA*dA*dA*dG*dG*dA) [AS-II-1659-20] | 54.7 | 42.54 | 42.86 | 81.56 | 74.09 | – | – |
| GCATCCAAGGTAAAAGAATT (antisense dG*dC*dA*dT*dC*dC*dA*dA*dG*dG*dT*dA*dA*dA*dA*dG*dA*dA*dT*dT) [AS-II-1335-20] | 78.59 | 78.78 | – | 90.04 | 59.95 | 67.87 | 72.98 |
| AAGCGGCGGGGGTTTTCTCT (antisense dA*dA*dG*dC*dG*dG*dC*dG*dG*dG*dG*dG*dT*dT*dT*dT*dC*dT*dC*dT) [AS-II-414-20] | 12.44 | 36.11 | – | 60.94 | 11.67 | 19.1 | 30.89 |
| TCGCCTACTCTCTTCTCAAA (antisense dT*dC*dG*dC*dC*dT*dA*dC*dT*dC*dT*dC*dT*dT*dC*dT*dC*dA*dA*dA) [AS-II-1278-20] | – | 57.05 | 90.68 | 85.31 | 65.42 | – | – |
| ATCCAGCGCAAGGCCCAGTC (antisense dA*dT*dC*dC*dA*dG*dC*dG*dC*dA*dA*dG*dG*dC*dC*dC*dA*dG*dT*dC) [AS-II-816-20] | 78.4 | 93.21 | – | 94.08 | 73.91 | 88.22 | 93.08 |
| TTCTGGCAAAAGGTGATACT (antisense dT*dT*dC*dT*dG*dG*dC*dA*dA*dA*dA*dG*dG*dT*dG*dA*dT*dA*dC*dT) [AS-II-1538-20] | 90.34 | 50.62 | – | 84.71 | 67.29 | 51.28 | 96.84 |
| GCGGCGGGGGTTTTCTCTCA (antisense dG*dC*dG*dG*dC*dG*dG*dG*dG*dG*dT*dT*dT*dT*dC*dT*dC*dT*dC*dA) [AS-II-412-20] | 43.78 | 55.25 | – | 73.96 | 22.2 | 27.98 | 26.23 |
| AS-II-134220 (antisense dG*dA*dA*dG*dT*dC*dA*dG*dC*dA*dT*dC*dC*dA*dA*dG*dG*dT*dA*dA) | 65.67 | 73.77 | – | 89.84 | 59.76 | 73.74 | 82.2 |
| TCCTCGCGGTCTTGCTGGCC (antisense dT*dC*dC*dT*dC*dG*dC*dG*dG*dT*dC*dT*dT*dG*dC*dT*dG*dG*dC*dC) [AS-II-323-20] | 91.24 | 97.55 | – | 79.76 | – | 55.8 | 96.39 |
